Assay [1] deals with L1210. Nature of the assay: In vitro cytotoxicity against cisplatin resistance L1210 murine leukemia cell line. The format is functional, cell-based, Mus musculus.
Assay [2] concerns L1210. In words: In vitro cytotoxicity against cisplatin sensitive L1210 murine leukemia cell line. The format is functional, cell-based, Mus musculus.
The subject of another assay is PC-9. Nature of the assay: Cytotoxicity against human non-small cell lung cancer cell line PC-9 in MTT assay. The format is functional, cell-based. Background: Tetrazolium assays rely on reduction of a dye to a coloured formazan, in cell work by metabolically active cells.
A further assay relates to PC-14. In words: Cytotoxicity against human non-small cell lung cancer cell line PC-14 in MTT assay. The format is functional, cell-based.
A further assay deals with SNU1. In words: Cytotoxicity against human stomach cancer cell line SNU-1 in MTT assay. The format is functional, cell-based.
The next assay relates to SNU-16. In words: Cytotoxicity against human stomach cancer cell line SNU-16 in MTT assay. The format is functional, cell-based.
Another assay relates to SNU-5. Nature of the assay: Cytotoxicity against human stomach cancer cell line SNU-5 in MTT assay. The format is functional, cell-based.
In assay [3] the test system is L1210. Nature of the assay: Ratio of the cytotoxicity against cisplatin resistance L1210 to parent (sensitive) cell lines. The format is functional, cell-based.

Usually IC50 stands for the midpoint of a concentration-inhibition curve. Low values mean greater potency in that assay, high ones weaker potency in that assay. For CARBOPLATIN [listing 1 of 2 here], the IC50 was found to be 44.2 µM in the assay with L1210 [1]; 1.83 µM in the assay on L1210 [2]; 21.8 µM with PC-9; 15.6 µM in the assay on PC-14; 20.1 µM in the assay with SNU1; 13.7 µM in the assay on SNU-16. 9.16 µM corresponded to half-maximal inhibition with SNU-5 (IC50).

On to CARBOPLATIN [listing 2 of 2 here], for which the Ratio with L1210 [3] is 24.1.

For the sequence CISPLATIN [listing 1 of 2 here], the IC50 in the assay with L1210 [1] stood at 3.27 µM; in the assay on L1210 [2], 0.1 µM; in the assay with PC-9, 1 µM; in the assay on PC-14 it was 1.33 µM; in the assay with SNU1 it was 2.67 µM; in the assay with SNU-16, 5 µM. In the assay with SNU-5, this sequence showed an IC50 of 1 µM.

Consider CISPLATIN [listing 2 of 2 here], for which the Ratio in the assay on L1210 [3] was 3.24.

For the origin of these results see ChEMBL document CHEMBL1127277, “Synthesis and in vitro cytotoxicity of 1,3-dioxolane-2-(2-ethanamine)-2-methanamine platinum(II) complexes” (Bioorg Med Chem Lett, 1994).
